Measured values taken from US20250114345A1, “COMPOUNDS AND COMPOSITIONS AS CBP/P300 DEGRADERS AND USES THEREOF” (Oncopia Therapeutics, Inc. d/b/a/ SK Life Science Labs, priority 2023, published 2025).

How the values were obtained:
p300 = target: T1, p300 (Homo sapiens, UniProt Q09472); assay: P300 degradation, HiBit technology in A549 P300 HiBit cells (2 h); assay type: cell-based; settings: 2 hrs post treatment; for Dmax: A549, A549 P300 HiBit cells; for DC50: A549 P300 HiBit cells
T1 construct: host or cells: A549 P300 HiBit cells
Procedure, shortened: (§1)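 A549 HiBiT knock-in cells seeded overnight at 37 °C, 5% CO2 in F-12K with 10% heat-inactivated FBS, then given serial dilutions of compound from 10 mM DMSO stocks. Lytic HiBiT detection reagent added for 10 min at room temperature; luminescence read. Potency and Dmax reported.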

CBP = target: T2, CBP (Homo sapiens, UniProt Q92793); assay: CBP degradation, HiBit technology in A549 CBP HiBit cells (24 h); assay type: cell-based; settings: 24 hrs post treatment
T2 construct: host or cells: A549 CBP HiBit cells
Procedure, shortened: as §1

T1 sequence (Q09472 whole entry): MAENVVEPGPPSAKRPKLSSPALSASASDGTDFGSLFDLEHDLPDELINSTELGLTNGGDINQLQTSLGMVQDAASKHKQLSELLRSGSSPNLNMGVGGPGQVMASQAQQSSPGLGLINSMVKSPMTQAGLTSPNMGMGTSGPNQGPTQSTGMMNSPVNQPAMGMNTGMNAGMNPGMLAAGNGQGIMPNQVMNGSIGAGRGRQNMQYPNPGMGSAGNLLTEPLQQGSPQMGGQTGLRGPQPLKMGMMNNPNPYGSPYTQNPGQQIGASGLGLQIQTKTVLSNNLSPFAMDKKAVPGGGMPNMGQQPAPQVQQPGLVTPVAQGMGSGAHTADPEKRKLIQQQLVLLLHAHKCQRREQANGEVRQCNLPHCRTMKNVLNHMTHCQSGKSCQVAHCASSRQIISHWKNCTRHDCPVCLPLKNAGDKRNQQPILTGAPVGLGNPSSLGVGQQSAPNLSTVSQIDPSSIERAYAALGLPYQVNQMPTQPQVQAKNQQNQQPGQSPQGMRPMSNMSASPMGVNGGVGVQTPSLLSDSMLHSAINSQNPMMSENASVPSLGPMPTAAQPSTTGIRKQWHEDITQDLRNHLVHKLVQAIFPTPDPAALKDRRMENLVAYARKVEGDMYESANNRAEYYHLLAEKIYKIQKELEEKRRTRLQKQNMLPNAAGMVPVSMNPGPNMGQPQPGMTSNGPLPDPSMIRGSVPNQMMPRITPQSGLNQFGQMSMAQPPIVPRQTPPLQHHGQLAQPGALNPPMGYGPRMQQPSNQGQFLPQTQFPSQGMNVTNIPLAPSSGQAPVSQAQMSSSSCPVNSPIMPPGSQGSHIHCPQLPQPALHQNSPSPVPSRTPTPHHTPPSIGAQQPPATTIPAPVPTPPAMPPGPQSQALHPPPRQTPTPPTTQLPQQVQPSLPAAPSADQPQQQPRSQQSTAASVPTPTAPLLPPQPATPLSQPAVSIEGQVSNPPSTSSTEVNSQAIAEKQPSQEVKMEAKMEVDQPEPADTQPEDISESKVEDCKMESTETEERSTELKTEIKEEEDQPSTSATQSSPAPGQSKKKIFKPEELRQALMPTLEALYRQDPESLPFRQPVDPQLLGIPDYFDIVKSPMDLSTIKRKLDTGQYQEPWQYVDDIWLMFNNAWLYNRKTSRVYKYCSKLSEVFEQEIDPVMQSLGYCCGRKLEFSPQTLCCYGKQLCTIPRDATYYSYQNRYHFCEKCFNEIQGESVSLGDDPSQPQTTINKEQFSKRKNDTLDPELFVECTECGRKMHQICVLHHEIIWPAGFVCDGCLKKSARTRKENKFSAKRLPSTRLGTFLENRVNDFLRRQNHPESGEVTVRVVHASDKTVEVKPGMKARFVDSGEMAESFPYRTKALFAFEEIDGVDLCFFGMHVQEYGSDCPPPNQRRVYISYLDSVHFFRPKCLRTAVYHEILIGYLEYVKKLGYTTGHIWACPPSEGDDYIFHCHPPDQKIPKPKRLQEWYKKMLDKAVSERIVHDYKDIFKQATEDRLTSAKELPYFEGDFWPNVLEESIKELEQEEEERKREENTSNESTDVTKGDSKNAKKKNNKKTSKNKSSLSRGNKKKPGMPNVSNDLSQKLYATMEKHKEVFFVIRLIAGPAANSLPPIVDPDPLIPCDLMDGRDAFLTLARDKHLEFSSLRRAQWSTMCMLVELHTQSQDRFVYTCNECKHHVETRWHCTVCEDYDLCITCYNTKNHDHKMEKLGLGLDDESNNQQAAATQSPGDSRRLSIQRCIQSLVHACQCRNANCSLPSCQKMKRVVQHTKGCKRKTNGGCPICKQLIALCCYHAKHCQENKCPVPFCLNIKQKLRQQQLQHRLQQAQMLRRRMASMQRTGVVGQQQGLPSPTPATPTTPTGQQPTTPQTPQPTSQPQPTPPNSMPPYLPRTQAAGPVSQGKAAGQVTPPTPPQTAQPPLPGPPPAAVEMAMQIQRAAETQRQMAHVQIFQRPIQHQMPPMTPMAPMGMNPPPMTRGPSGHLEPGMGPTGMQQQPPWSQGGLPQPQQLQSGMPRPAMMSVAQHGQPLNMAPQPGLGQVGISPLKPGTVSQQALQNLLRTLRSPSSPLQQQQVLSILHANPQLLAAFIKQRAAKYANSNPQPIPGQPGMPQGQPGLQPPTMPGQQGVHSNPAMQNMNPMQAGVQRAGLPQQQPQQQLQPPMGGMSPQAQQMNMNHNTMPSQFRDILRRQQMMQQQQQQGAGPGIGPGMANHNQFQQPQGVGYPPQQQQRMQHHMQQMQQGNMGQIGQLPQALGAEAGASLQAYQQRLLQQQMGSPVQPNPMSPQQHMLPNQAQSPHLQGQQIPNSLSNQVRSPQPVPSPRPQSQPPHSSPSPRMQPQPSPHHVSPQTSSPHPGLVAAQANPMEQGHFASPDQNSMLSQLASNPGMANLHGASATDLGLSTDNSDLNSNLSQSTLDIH
T2 sequence (Q92793 whole entry): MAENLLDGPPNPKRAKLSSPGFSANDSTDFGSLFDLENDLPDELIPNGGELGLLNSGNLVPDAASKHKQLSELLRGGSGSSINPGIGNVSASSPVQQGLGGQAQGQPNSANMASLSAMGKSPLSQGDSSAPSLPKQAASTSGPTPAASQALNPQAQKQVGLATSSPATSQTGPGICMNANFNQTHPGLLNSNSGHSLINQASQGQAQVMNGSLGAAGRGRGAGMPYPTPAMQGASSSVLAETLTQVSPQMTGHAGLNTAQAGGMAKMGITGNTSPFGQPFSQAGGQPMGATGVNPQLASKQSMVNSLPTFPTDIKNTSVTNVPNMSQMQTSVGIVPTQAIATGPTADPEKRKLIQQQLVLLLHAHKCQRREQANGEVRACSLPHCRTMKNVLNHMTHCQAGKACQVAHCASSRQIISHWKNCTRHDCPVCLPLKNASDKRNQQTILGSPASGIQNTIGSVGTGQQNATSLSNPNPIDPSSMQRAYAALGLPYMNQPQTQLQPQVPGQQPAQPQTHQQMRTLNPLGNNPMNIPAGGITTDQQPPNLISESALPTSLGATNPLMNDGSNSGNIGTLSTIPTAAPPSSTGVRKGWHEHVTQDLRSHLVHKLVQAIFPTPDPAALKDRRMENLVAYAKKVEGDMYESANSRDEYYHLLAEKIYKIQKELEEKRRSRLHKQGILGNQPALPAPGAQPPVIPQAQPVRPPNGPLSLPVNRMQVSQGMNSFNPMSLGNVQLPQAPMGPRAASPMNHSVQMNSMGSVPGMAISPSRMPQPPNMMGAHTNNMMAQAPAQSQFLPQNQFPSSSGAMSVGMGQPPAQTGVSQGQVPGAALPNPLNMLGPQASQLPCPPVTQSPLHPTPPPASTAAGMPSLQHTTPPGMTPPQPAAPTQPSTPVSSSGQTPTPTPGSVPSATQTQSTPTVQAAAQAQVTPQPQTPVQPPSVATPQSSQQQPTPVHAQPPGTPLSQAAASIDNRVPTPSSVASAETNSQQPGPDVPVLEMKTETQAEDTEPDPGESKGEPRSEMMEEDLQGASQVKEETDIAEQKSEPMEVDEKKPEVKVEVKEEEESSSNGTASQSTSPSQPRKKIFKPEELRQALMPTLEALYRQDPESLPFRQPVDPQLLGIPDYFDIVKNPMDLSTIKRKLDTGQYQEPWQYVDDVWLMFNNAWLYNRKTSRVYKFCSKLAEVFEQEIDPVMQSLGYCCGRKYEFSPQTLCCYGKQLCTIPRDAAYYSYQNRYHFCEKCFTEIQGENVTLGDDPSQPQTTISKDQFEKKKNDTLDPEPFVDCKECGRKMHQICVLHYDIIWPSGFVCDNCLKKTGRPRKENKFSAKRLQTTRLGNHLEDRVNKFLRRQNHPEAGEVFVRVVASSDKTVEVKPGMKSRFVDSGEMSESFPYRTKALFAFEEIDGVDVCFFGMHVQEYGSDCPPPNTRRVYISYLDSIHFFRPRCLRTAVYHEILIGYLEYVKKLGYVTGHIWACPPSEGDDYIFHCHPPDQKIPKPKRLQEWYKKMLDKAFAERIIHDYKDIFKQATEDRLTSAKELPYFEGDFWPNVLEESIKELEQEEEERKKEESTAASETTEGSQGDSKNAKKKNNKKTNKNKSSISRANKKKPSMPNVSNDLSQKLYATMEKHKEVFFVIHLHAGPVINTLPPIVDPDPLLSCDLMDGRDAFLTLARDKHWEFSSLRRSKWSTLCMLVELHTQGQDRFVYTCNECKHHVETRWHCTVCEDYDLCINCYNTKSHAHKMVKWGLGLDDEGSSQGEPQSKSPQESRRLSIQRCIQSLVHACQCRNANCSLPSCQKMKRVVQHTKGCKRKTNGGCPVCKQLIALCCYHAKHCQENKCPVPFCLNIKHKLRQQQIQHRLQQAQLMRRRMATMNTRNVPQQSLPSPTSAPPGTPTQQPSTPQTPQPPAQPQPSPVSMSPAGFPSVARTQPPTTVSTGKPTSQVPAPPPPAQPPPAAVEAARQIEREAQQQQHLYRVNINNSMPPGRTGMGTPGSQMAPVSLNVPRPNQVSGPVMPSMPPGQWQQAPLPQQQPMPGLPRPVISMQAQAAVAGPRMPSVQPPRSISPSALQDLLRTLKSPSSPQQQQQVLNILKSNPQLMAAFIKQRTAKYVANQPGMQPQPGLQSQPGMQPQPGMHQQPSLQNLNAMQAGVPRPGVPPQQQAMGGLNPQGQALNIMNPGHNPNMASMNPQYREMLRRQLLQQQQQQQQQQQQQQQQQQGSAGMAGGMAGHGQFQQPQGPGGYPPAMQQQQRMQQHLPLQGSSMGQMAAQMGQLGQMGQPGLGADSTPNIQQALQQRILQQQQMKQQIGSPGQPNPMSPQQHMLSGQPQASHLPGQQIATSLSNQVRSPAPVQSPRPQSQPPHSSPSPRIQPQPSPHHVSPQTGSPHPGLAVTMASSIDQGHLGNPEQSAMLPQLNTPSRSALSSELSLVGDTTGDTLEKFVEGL

Structure (SMILES) | Dmax (p300) | DC50 (p300) | DC50 (CBP) | Dmax (CBP)
Cc1cc2c(-c3cccc4cc(-c5ccc(C(=O)NCC#Cc6cc7c(C8CCC(=O)NC8=O)cccc7o6)nc5)ncc34)nc(N3CCOCC3)cc2n(C)c1=O (centres unmarked) [Example B74, 5-(8-(1,3-dimethyl-7-morpholino-2-oxo-1,2-dihydro-1,6-naphthyridin-5-yl)isoquinolin-3-yl)-N-(3-(4-(2,6-dioxopiperidin-3-yl)benzofuran-2-yl)prop-2-yn-1-yl)picolinamide] | > 80% | 1 to 9.9 nM | > 1000 nM | < 20%
Cc1cc2c(N3CCOc4cc(-c5ccc(C(=O)NCC#Cc6ccc7occ(C8CCC(=O)NC8=O)c7c6)nc5)ncc43)cccc2n(C)c1=O (centres unmarked) [Example B77, 5-(4-(1,3-dimethyl-2-oxo-1,2-dihydroquinolin-5-yl)-3,4-dihydro-2H-pyrido[4,3-b][1,4]oxazin-7-yl)-N-(3-(3-(2,6-dioxopiperidin-3-yl)benzofuran-5-yl)prop-2-yn-1-yl)picolinamide] | > 80% | 1 to 9.9 nM | > 1000 nM | < 20%
Cc1cc2c(N3CCCc4nc(-c5ccc(C(=O)NCC#Cc6cc7c(C8CCC(=O)NC8=O)cccc7s6)nc5)ncc43)cc(C3CCOCC3)cc2n(C)c1=O (centres unmarked) [Example B79, 5-(5-(1,3-dimethyl-2-oxo-7-(tetrahydro-2H-pyran-4-yl)-1,2-dihydroquinolin-5-yl)-5,6,7,8-tetrahydropyrido[3,2-d]pyrimidin-2-yl)-N-(3-(4-(2,6-dioxopiperidin-3-yl)benzo[b]thiophen-2-yl)prop-2-yn-1-yl)picolinamide] | > 80% | 1 to 9.9 nM | > 1000 nM | < 20%
Cc1cc2c(N3CCCc4nc(-c5ccc(C(=O)NCC#Cc6cc7c(C8CCC(=O)NC8=O)nccc7s6)nc5)ncc43)cc(C3CCOCC3)cc2n(C)c1=O (centres unmarked) [Example B81, 5-(5-(1,3-dimethyl-2-oxo-7-(tetrahydro-2H-pyran-4-yl)-1,2-dihydroquinolin-5-yl)-5,6,7,8-tetrahydropyrido[3,2-d]pyrimidin-2-yl)-N-(3-(4-(2,6-dioxopiperidin-3-yl)thieno[3,2-c]pyridin-2-yl)prop-2-yn-1-yl)picolinamide] | > 80% | 1 to 9.9 nM | 10 to 99 nM | 40 to 59%
Cc1cc(-c2cc3c(cn2)N(c2cccc4c2cc(C)c(=O)n4C)CCO3)cnc1C(=O)NCC#Cc1ccc2occ(C3CCC(=O)NC3=O)c2c1 (centres unmarked) [Example B83, 5-(4-(1,3-dimethyl-2-oxo-1,2-dihydroquinolin-5-yl)-3,4-dihydro-2H-pyrido[4,3-b][1,4]oxazin-7-yl)-N-(3-(3-(2,6-dioxopiperidin-3-yl)benzofuran-5-yl)prop-2-yn-1-yl)-3-methylpicolinamide] | > 80% | 1 to 9.9 nM | 100 to 999 nM | 40 to 59%
Cc1cc2c(N3CCCc4cc(-c5ccc(C(=O)NCC#Cc6cc7c(C8CCC(=O)NC8=O)nccc7o6)nc5)nnc43)cc(C3CCOCC3)cc2n(C)c1=O (centres unmarked) [Example B84, 5-(8-(1,3-dimethyl-2-oxo-7-(tetrahydro-2H-pyran-4-yl)-1,2-dihydroquinolin-5-yl)-5,6,7,8-tetrahydropyrido[2,3-c]pyridazin-3-yl)-N-(3-(4-(2,6-dioxopiperidin-3-yl)furo [3,2-c]pyridin-2-yl)prop-2-yn-1-yl) picolinamide] | > 80% | < 1 nM | 100 to 999 nM | < 20%
Cc1cc2c(N3CCCc4nc(-c5cnc(C(=O)NCC#Cc6cc7c(C8CCC(=O)NC8=O)cccc7o6)cn5)ncc43)cc(C3CCOCC3)cc2n(C)c1=O (centres unmarked) [Example B87, 5-(5-(1,3-dimethyl-2-oxo-7-(tetrahydro-2H-pyran-4-yl)-1,2-dihydroquinolin-5-yl)-5,6,7,8-tetrahydropyrido[3,2-d]pyrimidin-2-yl)-N-(3-(4-(2,6-dioxopiperidin-3-yl)benzofuran-2-yl)prop-2-yn-1-yl)pyrazine-2-carboxamide] | 60 to 79% | 1 to 9.9 nM | > 1000 nM | < 20%
Cc1cc2c(-c3cccc4cc(-c5ccc(C(=O)NCC#Cc6ccc7occ(C8CCC(=O)NC8=O)c7c6)nc5)ncc34)nc(OC(C)C)cc2n(C)c1=O (centres unmarked) [Example B88, N-(3-(3-(2,6-dioxopiperidin-3-yl)benzofuran-5-yl)prop-2-yn-1-yl)-5-(8-(7-isopropoxy-1,3-dimethyl-2-oxo-1,2-dihydro-1,6-naphthyridin-5-yl)isoquinolin-3-yl)picolinamide] | > 80% | 1 to 9.9 nM | > 1000 nM | < 20%
Cc1cc2c(N3CCOc4nc(-c5ccc(C(=O)NCC#Cc6cc7c(C8CCC(=O)NC8=O)cccc7o6)nc5)ncc43)cc(C3CCOCC3)cc2n(C)c1=O (centres unmarked) [Example B96, 5-(5-(1,3-dimethyl-2-oxo-7-(tetrahydro-2H-pyran-4-yl)-1,2-dihydroquinolin-5-yl)-6,7-dihydro-5H-pyrimido[4,5-b][1,4]oxazin-2-yl)-N-(3-(4-(2,6-dioxopiperidin-3-yl)benzofuran-2-yl)prop-2-yn-1-yl)picolinamide] | > 80% | 1 to 9.9 nM | 100 to 999 nM | < 20%
Cc1cc2c(-c3cccc4cc(-c5ccc(C(=O)NCC#Cc6ccc7occ(C8CCC(=O)NC8=O)c7c6)nc5)ncc34)nc(C(C)C)cc2n(C)c1=O (centres unmarked) [Example B102, N-(3-(3-(2,6-dioxopiperidin-3-yl)benzofuran-5-yl)prop-2-yn-1-yl)-5-(8-(7-isopropyl-1,3-dimethyl-2-oxo-1,2-dihydro-1,6-naphthyridin-5-yl)isoquinolin-3-yl)picolinamide] | > 80% | 1 to 9.9 nM | > 1000 nM | < 20%

Results, then the compound that gave them:

Dmax (p300) | DC50 (p300) | DC50 (CBP) | Dmax (CBP) | Structure (SMILES)
60 to 79% | 1 to 9.9 nM | > 1000 nM | < 20% | Cc1cc2c(N3CCCc4nc(-c5ccc(C(=O)NCC#Cc6ccc7occ([C@H]8CCC(=O)NC8=O)c7c6)nc5)ncc43)nc(N3CCOCC3)cc2n(C)c1=O [Example B72, (R)-5-(5-(1,3-dimethyl-7-morpholino-2-oxo-1,2-dihydro-1,6-naphthyridin-5-yl)-5,6,7,8-tetrahydropyrido[3,2-d]pyrimidin-2-yl)-N-(3-(3-(2,6-dioxopiperidin-3-yl)benzofuran-5-yl)prop-2-yn-1-yl)picolinamide]
> 80% | 1 to 9.9 nM | > 1000 nM | < 20% | Cc1cc2c(N3CCCc4nc(-c5ccc(C(=O)NCC#Cc6ccc7occ([C@@H]8CCC(=O)NC8=O)c7c6)nc5)ncc43)nc(N3CCOCC3)cc2n(C)c1=O [Example B73, (S)-5-(5-(1,3-dimethyl-7-morpholino-2-oxo-1,2-dihydro-1,6-naphthyridin-5-yl)-5,6,7,8-tetrahydropyrido[3,2-d]pyrimidin-2-yl)-N-(3-(3-(2,6-dioxopiperidin-3-yl)benzofuran-5-yl)prop-2-yn-1-yl)picolinamide]
> 80% | 1 to 9.9 nM | 100 to 999 nM | < 20% | Cc1cc2c(N3CCCc4nc(-c5ccc(C(=O)NCC#Cc6ccc7occ(C8CCC(=O)NC8=O)c7c6)nc5)ncc43)cc(C3CCOCC3)nc2n(C)c1=O (centres unmarked) [Example B76, 5-(5-(6,8-dimethyl-7-oxo-2-(tetrahydro-2H-pyran-4-yl)-7,8-dihydro-1,8-naphthyridin-4-yl)-5,6,7,8-tetrahydropyrido[3,2-d]pyrimidin-2-yl)-N-(3-(3-(2,6-dioxopiperidin-3-yl)benzofuran-5-yl)prop-2-yn-1-yl)picolinamide]
> 80% | 1 to 9.9 nM | > 1000 nM | < 20% | Cc1cc2c(N3CCCc4nc(-c5ccc(C(=O)NCC#Cc6cc7c(C8CCC(=O)NC8=O)cccc7o6)nc5)ncc43)cc(C3(F)CCOCC3)cc2n(C)c1=O (centres unmarked) [Example B82, N-(3-(4-(2,6-dioxopiperidin-3-yl)benzofuran-2-yl)prop-2-yn-1-yl)-5-(5-(7-(4-fluorotetrahydro-2H-pyran-4-yl)-1,3-dimethyl-2-oxo-1,2-dihydroquinolin-5-yl)-5,6,7,8-tetrahydropyrido [3,2-d]pyrimidin-2-yl)picolinamide]
> 80% | < 1 nM | > 1000 nM | < 20% | Cc1cc2c(N3CCCc4nc(-c5ccc(C(=O)NCC#Cc6cc7c(C8CCC(=O)NC8=O)c(F)ccc7o6)nc5)ncc43)cc(C3CCOCC3)cc2n(C)c1=O (centres unmarked) [Example B90, 5-(5-(1,3-dimethyl-2-oxo-7-(tetrahydro-2H-pyran-4-yl)-1,2-dihydroquinolin-5-yl)-5,6,7,8-tetrahydropyrido[3,2-d]pyrimidin-2-yl)-N-(3-(4-(2,6-dioxopiperidin-3-yl)-5-fluorobenzo-furan-2-yl)prop-2-yn-1-yl)picolinamide]
> 80% | 1 to 9.9 nM | 10 to 99 nM | 20 to 39% | Cc1cc2c(-c3cccc4cc(-c5ccc(C(=O)NCC#Cc6ccc7occ(C8CCC(=O)NC8=O)c7c6)nc5)ncc34)nc(N3CCOCC3)cc2n(C)c1=O (centres unmarked) [Example B92, 5-(8-(1,3-dimethyl-7-morpholino-2-oxo-1,2-dihydro-1,6-naphthyridin-5-yl)isoquinolin-3-yl)-N-(3-(3-(2,6-dioxopiperidin-3-yl)benzofuran-5-yl)prop-2-yn-1-yl)picolinamide]
> 80% | < 1 nM | 1 to 9.9 nM | 20 to 39% | Cc1cc2c(N3CCCc4nc(-c5ccc(C(=O)NCC#Cc6cc7c(C8CCC(=O)NC8=O)nccc7o6)nc5)ncc43)cc(C3CCOCC3)cc2n(C)c1=O (centres unmarked) [Example B94, 5-(5-(1,3-dimethyl-2-oxo-7-(tetrahydro-2H-pyran-4-yl)-1,2-dihydroquinolin-5-yl)-5,6,7,8-tetrahydropyrido[3,2-d]pyrimidin-2-yl)-N-(3-(4-(2,6-dioxopiperidin-3-yl)furo[3,2-c]pyridin-2-yl)prop-2-yn-1-yl)picolinamide]
